Test results from paper PMC10322702 (Nature Chemistry, 2023).
“And” between values parts separate entries of the source, which are not always exact repeats. Equal values may be shown once. Numbered stars: 1 amine (or outer) side, 2 acyl side, 3 side chain; on linkers, the order of the positions; unused ones are H or OH. Bridge positions count the residues as written; N and C are the ends. Square brackets hold non-standard residues; d marks the D form. Peptide text beside a SMILES is read from it. Acbc(cis-1,3) = O=C([C@H]1C[C@@H](N[*:1])C1)[*:2]; X1 = O=C([C@@H]1CC[C@H](N[*:1])C1)[*:2]

Legend:
[1] = biological target: T1, SARS-CoV-2 M^pro (Severe acute respiratory syndrome coronavirus 2, UniProt P0DTD1); experiment: biochemical; format: binding; conditions: for kon: read-out: ka (kinetic association)
[2] = biological target: T1, SARS-CoV-2 M^pro; experiment: biochemical; format: biochemical
[3] = Serum stability assay in human serum (LC/MS)
[4] = 37 °C, incubation time 1 h, relative to 0 h = 100%, technical replicates, 60 min
[5] = 37 °C, incubation time 2 h, relative to 0 h = 100%, technical replicates, 120 min
[6] = 37 °C, incubation time 4 h, relative to 0 h = 100%, technical replicates, 240 min
[7] = 37 °C, incubation time 8 h, relative to 0 h = 100%, technical replicates, 480 min
[8] = 37 °C, incubation time 24 h, relative to 0 h = 100%, technical replicates, 1440 min
[9] = 37 °C, incubation time 50 h, relative to 0 h = 100%, technical replicates, 3000 min
[10] = 37 °C, incubation time 100 h, relative to 0 h = 100%, technical replicates, 6000 min
[11] = human, Remaining peptide (%), 37 °C, incubation time 1 h, relative to 0 h = 100%, technical replicates
[12] = human, Remaining peptide (%), 37 °C, incubation time 2 h, relative to 0 h = 100%, technical replicates
[13] = human, Remaining peptide (%), 37 °C, incubation time 4 h, relative to 0 h = 100%, technical replicates
[14] = human, Remaining peptide (%), 37 °C, incubation time 8 h, relative to 0 h = 100%, technical replicates
[15] = human, Remaining peptide (%), 37 °C, incubation time 24 h, relative to 0 h = 100%, technical replicates
[16] = human, Remaining peptide (%), 37 °C, incubation time 50 h, relative to 0 h = 100%, technical replicates
[17] = human, Remaining peptide (%), 37 °C, incubation time 100 h, relative to 0 h = 100%, technical replicates

SMILES | Kd [1] [µM] | IC50 [2] [µM] | kd (kinetic dissociation) [1] | kon [1] [M⁻¹ s⁻¹] | inhibition at 16.6 µM [2] [%] | inhibition at 50.1 µM [2] [%] | Remaining peptide (%) [3, 4] | Remaining peptide (%) [3, 5] | Remaining peptide (%) [3, 6] | Remaining peptide (%) [3, 7] | half-life at 10 μM ([3]; human) [h] | remaining at 1 h, 10 μM [3, 11] [%] | remaining at 2 h, 10 μM [3, 12] [%] | remaining at 4 h, 10 μM [3, 13] [%] | remaining at 8 h, 10 μM [3, 14] [%] | remaining at 24 h, 10 μM [3, 15] [%] | further results
CC(C)C[C@@H]1NC(=O)[C@H](CC(N)=O)NC(=O)[C@H](CC(C)C)NC(=O)[C@H]2C[C@H](C2)NC(=O)[C@H](C)NC(=O)[C@H](Cc2ccccc2)NC(=O)[C@@H](Cc2ccc(O)cc2)NC(=O)CSC[C@H](C(N)=O)NC(=O)CNC(=O)[C@@H]2CCCN2C(=O)[C@H](CCCNC(=N)N)NC(=O)[C@H](Cc2ccc(O)cc2)NC(=O)CNC1=O [GM4H3A] ({CH2CO}-[dY]FA[Acbc(cis-1,3)]LNLGYRPG[dC]-NH2; thioether N-13) | > 10 | > 25 |  |  |  |  |  |  |  |  |  |  |  |  |  |  | inhibition of M^pro (in words) [2]: no inhibition
CC[C@H](C)[C@@H]1NC(=O)[C@H](Cc2ccc(O)cc2)NC(=O)[C@H](CC(C)C)NC(=O)[C@H](CC(=O)O)NC(=O)[C@H](CCCNC(=N)N)NC(=O)[C@H](Cc2ccccc2)NC(=O)[C@H](C)NC(=O)[C@H](Cc2c[nH]cn2)NC(=O)[C@H](Cc2ccccc2)NC(=O)[C@@H](Cc2ccc(O)cc2)NC(=O)CSC[C@H](C(N)=O)NC(=O)CNC(=O)[C@H](CC(C)C)NC1=O [GM5γ^24A] ({CH2CO}-[dY]FHAFRDLYILG[dC]-NH2; thioether N-13) | 0.061 | 0.05 | 8.7 10^-3 s^-1 | 140000 | 100 | 100 | 85.94% and 86.10% | 65.85% and 75.80% | 83.58% and 80.89% | 69.62% and 72.73% | 21 | 89.2 | 75.3 | 82.3 | 70.9 | 45.5 | inhibition at 1.86 µM [2]: 100%; inhibition at 5.62 µM [2]: 100%; inhibition at […] [2]: 100%; Remaining peptide (%) [3, 8]: 51.61% and 49.70%; Remaining peptide (%) [3, 9]: 25.37% and 24.58%; Remaining peptide (%) [3, 10]: 8.38% and 8.41%; remaining at 50 h, 10 μM [3, 16]: 23%; remaining at 100 h, 10 μM [3, 17]: 7.6%
CC[C@H](C)[C@@H]1NC(=O)[C@H](Cc2ccc(O)cc2)NC(=O)[C@H]([C@@H](C)O)NC(=O)[C@H](C)NC(=O)[C@@H]2CC[C@@H](C2)NC(=O)[C@H](CO)NC(=O)[C@H]([C@@H](C)O)NC(=O)[C@H](Cc2ccc(O)cc2)NC(=O)[C@H](Cc2ccccc2)NC(=O)[C@H](Cc2c[nH]cn2)NC(=O)[C@H](CC(C)C)NC(=O)[C@@H](Cc2ccc(O)cc2)NC(=O)CSC[C@H](C(N)=O)NC(=O)[C@@H]2CCCN2C(=O)[C@H](Cc2ccc(O)cc2)NC1=O [GM7, ^AcyLHFYTSγ^2ATYIYPc-NH2] ({CH2CO}-[dY]LHFYTS[X1]ATYIYP[dC]-NH2; thioether N-15) | 0.49 | 7.93 | 23 10^-3 s^-1 | 48000 |  |  |  |  |  |  |  |  |  |  |  |  | inhibition at 25.1 µM [2]: 96%
CC(C)C[C@@H]1NC(=O)[C@H](CC(N)=O)NC(=O)[C@H](CC(C)C)NC(=O)[C@H](CC(N)=O)NC(=O)[C@H](Cc2c[nH]cn2)NC(=O)[C@H](Cc2ccccc2)NC(=O)[C@@H](Cc2ccc(O)cc2)NC(=O)CSC[C@H](C(N)=O)NC(=O)CNC(=O)[C@@H]2CCCN2C(=O)[C@H](CCCNC(=N)N)NC(=O)[C@H](Cc2ccc(O)cc2)NC(=O)CNC1=O [GM4γ^14N] ({CH2CO}-[dY]FHNLNLGYRPG[dC]-NH2; thioether N-13) | 0.48 | 1 | 9.5 10^-3 s^-1 | 20000 | 100 | 100 |  |  |  |  |  |  |  |  |  |  | fold less active than GM4 (M^pro inhibition) [2]: 20 fold
CC(C)C[C@@H]1NC(=O)[C@H](CC(N)=O)NC(=O)[C@H](CC(C)C)NC(=O)[C@H]2C[C@H](C2)NC(=O)[C@H](CCC(N)=O)NC(=O)[C@H](Cc2ccccc2)NC(=O)[C@@H](Cc2ccc(O)cc2)NC(=O)CSC[C@H](C(N)=O)NC(=O)CNC(=O)[C@@H]2CCCN2C(=O)[C@H](CCCNC(=N)N)NC(=O)[C@H](Cc2ccc(O)cc2)NC(=O)CNC1=O [GM4H3Q] ({CH2CO}-[dY]FQ[Acbc(cis-1,3)]LNLGYRPG[dC]-NH2; thioether N-13) | 0.00086 | 0.01 | 1.0 10^-3 s^-1 | 1.2e+06 |  |  | 98.03% and 94.19% | 84.19% and 81.93% | 100.31% and 98.70% | 92.68% and 86.88% | 82 | 93.4 | 87.5 | 99.9 | 93.9 | 81.3 | fold change in binding affinity relative to the original peptide [1]: sixfold stronger; fold more potent inhibitory activity relative to GM4 [2]: fivefold more potent; inhibition at 0.186 µM [2]: 96%; inhibition at 0.55 µM [2]: 100%; inhibition at 1.66 µM [2]: 100%; inhibition at 5.01 µM [2]: 100%; Remaining peptide (%) [3, 8]: 77.71% and 81.24%; Remaining peptide (%) [3, 9]: 64.07% and 63.70%; Remaining peptide (%) [3, 10]: 43.40% and 43.85%; remaining at 50 h, 10 μM [3, 16]: 70.1%; remaining at 100 h, 10 μM [3, 17]: 44.2%
CC(C)C[C@@H]1NC(=O)[C@@H](Cc2ccc(O)cc2)NC(=O)CSC[C@H](C(N)=O)NC(=O)[C@H](C)NC(=O)[C@H](C)NC(=O)[C@H](Cc2ccc(O)cc2)NC(=O)[C@H](CCCNC(=N)N)NC(=O)[C@H](Cc2ccc(O)cc2)NC(=O)[C@@H]2CC[C@@H](C2)NC(=O)[C@H](CO)NC(=O)[C@H](Cc2ccc(O)cc2)NC(=O)[C@H]([C@@H](C)O)NC(=O)[C@H](CO)NC(=O)[C@H](C)NC(=O)[C@H](Cc2ccc(O)cc2)NC(=O)[C@H](Cc2c[nH]cn2)NC1=O [GM3] ({CH2CO}-[dY]LHYASTYS[X1]YRYAA[dC]-NH2; thioether N-16) | 0.062 | 2.06 | 13 10^-3 s^-1 | 200000 |  |  | 71.95% and 68.98% | 55.38% and 55.49% | 43.40% and 39.26% | 15.43% and 15.99% | 2.5 | 60.8 | 48.5 | 45.6 | 15.7 | 0 | inhibition at 2.75 µM [2]: 66.3%; Remaining peptide (%) ([3]; 37 °C, incubation time 0.5 h, relative to 0 h = 100%, technical replicates, 30 min): 72.71% and 73.43%; remaining at 0.5 h, 10 μM ([3]; human, Remaining peptide (%), 37 °C, incubation time 0.5 h, relative to 0 h = 100%, technical replicates): 67.7%
CC[C@H](C)[C@@H]1NC(=O)[C@H](Cc2ccccc2)NC(=O)[C@@H](Cc2ccc(O)cc2)NC(=O)CSC[C@H](C(N)=O)NC(=O)[C@H]([C@@H](C)CC)NC(=O)[C@@H]2CCCN2C(=O)[C@H](CC(C)C)NC(=O)[C@H]2C[C@H](C2)NC(=O)[C@H](Cc2c[nH]cn2)NC(=O)[C@@H]2CCCN2C(=O)[C@H](CC(=O)O)NC(=O)[C@H](Cc2c[nH]cn2)NC(=O)[C@H](Cc2ccccc2)NC(=O)[C@H]([C@@H](C)CC)NC(=O)[C@H]([C@@H](C)O)NC(=O)[C@H](Cc2c[nH]cn2)NC1=O [GM6] ({CH2CO}-[dY]FIHTIFHDPH[Acbc(cis-1,3)]LPI[dC]-NH2; thioether N-16) | 0.082 | 2.28 | 6.4 10^-3 s^-1 | 78000 | 100 | 100 |  |  |  |  |  |  |  |  |  |  | inhibition at 5.5 µM [2]: 90.2%
CC(C)C[C@@H]1NC(=O)[C@H](CC(N)=O)NC(=O)[C@H](CC(C)C)NC(=O)[C@H]2C[C@H](C2)NC(=O)[C@H](CCC(=O)O)NC(=O)[C@H](Cc2ccccc2)NC(=O)[C@@H](Cc2ccc(O)cc2)NC(=O)CSC[C@H](C(N)=O)NC(=O)CNC(=O)[C@@H]2CCCN2C(=O)[C@H](CCCNC(=N)N)NC(=O)[C@H](Cc2ccc(O)cc2)NC(=O)CNC1=O [GM4H3E] ({CH2CO}-[dY]FE[Acbc(cis-1,3)]LNLGYRPG[dC]-NH2; thioether N-13) | 0.36 | > 25 | 7.1 10^-3 s^-1 | 20000 |  |  |  |  |  |  |  |  |  |  |  |  | inhibition of M^pro (in words) [2]: observed only with the highest tested concentration (25 µM)
